Tests used:
[1] = tested on: kultivierten Rattenhepatocyten; assay: Incorporation of 14C-labelled acetate into the non-saponifiable neutral lipid fraction (cholesterol de novo synthesis); type: cell-based, Ratten
Description: Erfindungsgemäß wurde überraschenderweise an Hand von Messungen des Einbaus von ^14[…] in die Fraktion der nicht-verseifbaren neutralen Lipide von kultivierten Rattenhepatocyten nachgewiesen, daß Luteolin, seine Derivate und […] Verbindungen konzentrationsabhängig die Neusynthese von Cholesterin in […]. Bei Verwendung eines Luteolin-7-0-glucosid-[…] Kulturmedium in einer Konzentration zwischen 0,02 und 0,1 mg/ml […] (Plateau) von ca. 20% ein, ohne daß zytotoxische Wirkungen nachweisbar wären. Bei höheren Konzentrationen (bis 1 mg/ml) […] noch […] auf (maximal 85 %), ohne […] von 2 mg/ml einsetzen. Durch Ersatz des ^14[…] durch […] vor der Bildung von Mevalonat lag; Hemmwirkungen, die zu einer Verschiebung des Musters der Vorläufersterine des Cholesterin […]. Die Aktivität der HMG-CoA-Reduktase, des Schlüsselenzyms der Cholesterinsynthese, wird somit indirekt über […] oder […] des Enzyms gedrosselt.

[2] = rabbits, blood lipids raised by cholesterol diet (200 mg Cholesterin pro kg Körpergewicht über 60 Tage); Chem. Abstr. 76; cited from earlier work

Compound	Hemmung der Cholesterinneusynthese ([1]; concentrations that are maximally achievable in artichoke leaf extract preparations)	lipidsenkende Wirkung im Tierversuch [2]	Neusynthese von Cholesterin in den Leberzellen ([1]; 14C-acetate incorporation, cultured rat hepatocytes)
O=C(/C=C/c1ccc(O)c(O)c1)O[C@@H]1C[C@@](OC(=O)/C=C/c2ccc(O)c(O)c2)(C(=O)O)C[C@@H](O)[C@@H]1O [Cynarin, 1,5-Di-Caffeoyl-D-Chinasäure, reference compound]	keinerlei Hemmung		
Luteolin-7-Glycosid		lipidsenkende Wirkung	
O=c1cc(-c2ccc(O)c(O)c2)oc2cc(O)cc(O)c12 [Luteolin, 31,41,5-Tetrahydroxyflavon]		lipidsenkende Wirkung	konzentrationsabhängig die Neusynthese von Cholesterin in den Leberzellen vermindern

— patent EP0807435A2, “Indirect HMG-CoA-reductase inhibitor” (Sertürner Arzneimittel GmbH, priority 1996, dated 1997)
